Usually Ki stands for the dissociation constant of the complex between target and ligand, obtained from inhibition or displacement.

The values that follow come from patent publication US5633381A, “(Z,Z), (Z,E) and (E,Z) isomers of substituted bis(phenylmethylene)cycloketones” (Berlex Laboratories, Inc., priority 1994, dated 1997).

Type in all cases: biochemical
In one test the target is Factor Xa (HFXa) (Homo sapiens, UniProt P00742). Kind of test: Assay of free Factor Xa: initial rate of cleavage of peptide p-nitroanilide S-2222. The note with it: free FXa, Tris-HCl pH 7.5, 164 μM S-2222, 3 nM HFXa, room temperature. As for the experimental part:
(§1) There are a number of tests which illustrate the activity of the compounds of this invention. Due to the light sensitivity of the test Compounds, experiments were performed under minimally lighted conditions. The tests follow. ASSAY OF FREE FACTOR XA AND THROMBIN Activity of Factor Xa and thrombin (IIa) were determined as the initial rate of cleavage of peptide p-nitroanilide by the enzymes. […] Initial rate of the first 2 minutes was used for calculation of the enzyme activities.

A further test deals with thrombin (IIa) (Homo sapiens, UniProt P00734). Put plainly: Assay of free thrombin (IIa): initial rate of cleavage of peptide p-nitroanilide S2302. The note with it: Tris-HCl pH 7.5, 300 μM S2302, 20 nM thrombin, room temperature. As for the experimental part:
as §1

The subject of test [1] is citrated plasma clotting (activated partial thromboplastin time). Kind of test: Coagulation assay: activated partial thromboplastin time (APTT). Conditions: human plasma, Actin Reagent, 37° C. As for the experimental part: (§2) There are a number of tests which illustrate the activity of the compounds of this invention. Due to the light sensitivity of the test Compounds, experiments were performed under minimally lighted conditions. The tests follow.
(§3) Two coagulation assays, the activated partial thromboplastin time (APTT) and the prothrombin time (PT), were used to evaluate the compounds. An Electra 900C coagulometer with the software package was used. The Actin Reagent (APTT) or Rabbit Brain Thromboplastin (PT) is added to citrated plasma sample in equal volumes (100 μL each) and allowed to incubate for 5 min. at 37° C. […] (100 μL) is added and time to clot noted. Dilution series for compounds undergoing testing were made in human plasma prior to assay.

In test [2] the test system is citrated plasma clotting (prothrombin time). Kind of test: Coagulation assay: prothrombin time (PT). Conditions: human plasma, Rabbit Brain Thromboplastin, 37° C. As for the experimental part: as §2, §3
In a further test the target is T1, human FXa (Homo sapiens, UniProt P00742).
T1 construct: 6 nM of human FXa; purchased Enzyme Research Lab; USA
Put plainly: In vitro plasma matrix effect on anti-FX activity (compounds diluted in 100% rat plasma). Conditions: compound in 100% rat plasma, 30 min incubation, S2222, pH 7.5, room temperature, read-out: Ki (Xa). As for the experimental part: as §2
IN VITRO PLASMA MATRIX EFFECT ON ANTI-FX ACTIVITY:
Compound stock solutions (10 mM in DMSO) were diluted in 100% rat plasma in a series of 1 to 3 dilutions in the following concentration ranges: (1) from 300 μM to 1.23 μM; (2) from 10 μM to 0.041 μM; (3) from 100 μM to 0.412 μM. After 30 minutes incubation (in dark) at room temperature, 20 μL of diluted compounds (in rat plasma) were added in duplicate to a 96-well flat-bottom microtiter plate (Dynatech Laboratories, USA). Thirty microliter of assay buffer containing 50 mM Tris HCl, pH 7.5, […], and 0.1% polyethylene glycol 6000 was added to each sample well followed by 100 ul of 6 nM of human FXa (in assay buffer) (Enzyme Research Lab. USA). The plate was mixed in a plate shaker for about 30 seconds. The reaction was started by the addition of 50 ul of 656 uM of chromogenic substrate S2222 in assay buffer (Pharmacia Hepar Inc. USA). FXa activity was measured at […] at room temperature for five minutes at 10 seconds interval in a THERMOmax microtiter plate reader (Molecular Devices). An internal standard was assayed in parallel as control. Initial rate as mOD/min was determined using OD readings in the first two minutes of the reaction. IC50 values were determined with a 4-parameter curve fit program provided by the Molecular Devices' software, SOFTmax 2.32. Ki values were then calculated with the following equation: Ki=IC50 /(1+[S]/Km). […]

Structures can show the parent of a compound that is named as a salt.

Factor Xa (HFXa), sequence (P00742 235-488 limits assumed): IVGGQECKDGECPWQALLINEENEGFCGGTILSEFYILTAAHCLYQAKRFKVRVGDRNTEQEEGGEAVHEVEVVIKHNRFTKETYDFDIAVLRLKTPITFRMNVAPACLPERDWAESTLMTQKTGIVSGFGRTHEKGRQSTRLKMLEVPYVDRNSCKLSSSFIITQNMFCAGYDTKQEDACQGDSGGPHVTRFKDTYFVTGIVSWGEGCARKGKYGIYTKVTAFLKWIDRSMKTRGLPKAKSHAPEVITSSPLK
Factor Xa (HFXa), sequence (P00742 41-179 limits assumed): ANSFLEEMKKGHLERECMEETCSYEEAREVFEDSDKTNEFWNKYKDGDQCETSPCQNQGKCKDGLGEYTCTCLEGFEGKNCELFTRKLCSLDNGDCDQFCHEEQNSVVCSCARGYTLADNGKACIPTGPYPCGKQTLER
T1 sequence (P00742 235-488 limits assumed): as the sequence (P00742 235-488 limits assumed) above
T1 sequence (P00742 41-179 limits assumed): as the sequence (P00742 41-179 limits assumed) above

Regarding `N=C(N)c1ccc(/C=C2\CCCC/C(=C\c3ccc(C(=N)N)cc3)C2=O)cc1` [EX. 1 E,E, E,E-1,3-bis[(4'-(amino(imino)methyl)phenyl)methylene]-2-oxocycloheptane, hydrochloride], the inhibition constant (Ki) amounted to 16500 ± 800 nM at Factor Xa (HFXa), 6200 ± 530 nM on thrombin (IIa) and 27000 ± 2600 nM at human FXa. Moreover, the “APTT: dose of compound required to produce a 2 fold increase in clot time” value in test [1] was 17.5 µg/mL. Also, in test [2], the “PT: dose of compound required to produce a 2 fold increase in clot time” value is over 30 µg/mL.
The matching figures for `N=C(N)c1ccc(/C=C2/CCCC/C(=C\c3ccc(C(=N)N)cc3)C2=O)cc1` [EX. 2 Z,E, Z,E-1,3-bis[(4'-(amino(imino)methyl)phenyl)methylene]-2-oxocycloheptane, trifluoroacetate]: 201 ± 57 nM, 132 ± 2 nM, 210 ± 34 nM, 1.6 µg/mL and 3.2 µg/mL.
Regarding `N=C(N)c1ccc(/C=C2/CCCC/C(=C/c3ccc(C(=N)N)cc3)C2=O)cc1` [EX. 2 Z,Z, Z,Z-1,3-bis[(4'-(amino(imino)methyl)phenyl)methylene]-2-oxocycloheptane, trifluoroacetate], the values for the Ki at Factor Xa (HFXa), at thrombin (IIa) and at human FXa were 1.12 ± 0.28 nM, 525 nM and 3.45 ± 0.07 nM, respectively. In test [1], the “APTT: dose of compound required to produce a 2 fold increase in clot time” value amounted to 0.3 µg/mL. In addition, the “PT: dose of compound required to produce a 2 fold increase in clot time” value in test [2] came out at 0.3 µg/mL.
For `N=C(N)c1ccc(/C=C2\CCC/C(=C\c3ccc(C(=N)N)cc3)C2=O)cc1` [EX. 3 E,E, E,E-1,3-bis[(4'-(amino(imino)methyl)phenyl)methylene]-2-oxocyclohexane, phosphate], the values for the inhibitory constant (Ki) on Factor Xa (HFXa) and on thrombin (IIa) were 5650 ± 350 nM and 2970 ± 480 nM, respectively.
For the compound `N=C(N)c1ccc(/C=C2/CCC/C(=C\c3ccc(C(=N)N)cc3)C2=O)cc1` [EX. 4 Z,E, Z,E-1,3-bis[(4'-(amino(imino)methyl)phenyl)methylene]-2-oxocyclohexane, trifluoroacetate], the Ki at Factor Xa (HFXa) came to 422 ± 167 nM; on thrombin (IIa), 115 ± 71 nM.
The matching figures for `N=C(N)c1ccc(/C=C2/CCC/C(=C/c3ccc(C(=N)N)cc3)C2=O)cc1` [EX. 4 Z,Z, Z,Z-1,3-bis[(4'-(amino(imino)methyl)phenyl)methylene]-2-oxocyclohexane, trifluoroacetate]: 28.9 ± 7 nM and 1340 ± 370 nM.
Turning to `N=C(N)c1ccc(/C=C2\CCCC/C(=C\c3ccc(C(N)=O)cc3)C2=O)cc1` [EX. 5 E,E, E,E-1-(4'-(amino(imino)methyl)phenyl)methylene-3-(4'-(aminocarbonyl)phenyl)methylene-2-oxocycloheptane, hydrochloride], the Ki at Factor Xa (HFXa) and on thrombin (IIa) was over 5000 nM each time.
With `N=C(N)c1ccc(C=C2CCCCC(=Cc3ccc(C(N)=O)cc3)C2=O)cc1` [EX. 6 Z,E:E,Z, Z,E/E,Z-1-(4'-(amino(imino)methyl)phenyl)methylene-3-(4'-(aminocarbonyl)phenyl)-methylene-2-oxocycloheptane, trifluoroacetate], the inhibitory constant (Ki) is 1850 ± 10 nM on Factor Xa (HFXa) and 380 nM on thrombin (IIa).
For the compound `N=C(N)c1ccc(/C=C2/CCCC/C(=C/c3ccc(C(N)=O)cc3)C2=O)cc1` [EX. 6 Z,Z, Z,Z-1-(4'-(amino(imino)methyl)phenyl)methylene-3-(4'-(aminocarbonyl)phenyl)-methylene-2-oxocycloheptane, trifluoroacetate], the Ki stood at 52.1 ± 2.5 nM at Factor Xa (HFXa) and 107 ± 2 nM at thrombin (IIa).
In the same order, the values of `CNC(=N)c1ccc(/C=C2\CCCC/C(=C\c3ccc(C(=N)N)cc3)C2=O)cc1` [EX. 7 E,E, E,E-1-(4'-(amino(imino)methyl)phenyl)methylene-3-(4'-(N'-methylamino-(imino)methyl)phenyl)methylene-2-oxocycloheptane, hydrochloride] are 29000 nM and 12900 nM.
As for `CNC(=N)c1ccc(C=C2CCCCC(=Cc3ccc(C(=N)N)cc3)C2=O)cc1` [EX. 8 Z,E:E,Z, Z,E/E,Z-1-(4'-(amino(imino)methyl)phenyl)methylene-3-(4'-(N'-methylamino (imino)methyl)phenyl)methylene-2-oxocycloheptane, trifluoroacetate], the figures for the Ki on Factor Xa (HFXa) and on thrombin (IIa) were 504 ± 44 nM and 363 ± 19 nM, respectively.
`C/N=C(\N)c1ccc(/C=C2/CCCC/C(=C/c3ccc(C(=N)N)cc3)C2=O)cc1` [EX. 8 Z,Z, Z,Z-1-(4'-(amino(imino)methyl)phenyl)methylene-3-(4'-(N'-methylamino-(imino)methyl)phenyl)methylene-2-oxocycloheptane, trifluoroacetate]: the values for the Ki at Factor Xa (HFXa) and on thrombin (IIa) were 12.3 ± 1.8 nM and 1580 ± 290 nM, respectively.
In the same order, the values of `CN(C)C(=N)c1ccc(/C=C2/CCCC/C(=C/c3ccc(C(=N)N)cc3)C2=O)cc1` [EX. 10 Z,Z, Z,Z-1-(4'-(amino(imino)methyl)phenyl)methylene-3-(4'-(N',N'-dimethylamino (imino)methyl)phenyl)methylene-2-oxocycloheptane] are 17.8 ± 2.6 nM and 1390 ± 140 nM.
With `N=C(N)c1ccc(/C=C2/CC(C(=O)O)C/C(=C/c3ccc(C(=N)N)cc3)C2=O)cc1` (stereo not shown) [EX. 11 Z,Z, Z,Z-3,5-bis[(4'-(amino(imino)methyl)phenyl)methylene]-4-oxocyclohexanoic acid, trifluoroacetate], the Ki at Factor Xa (HFXa) was found to be 29.1 ± 5.8 nM; on thrombin (IIa) it was 120000 ± 7000 nM.
In the case of `N=C(N)c1cccc(/C=C2\CCCC/C(=C\c3cccc(C(=N)N)c3)C2=O)c1` [EX. 12 E,E, E,E-1,3-bis[(3'-(amino(imino)methyl)phenyl)methylene]-2-oxocycloheptane, dihydrochloride], the Ki was 1390 ± 210 nM at Factor Xa (HFXa) and 2140 ± 150 nM on thrombin (IIa).
Take `N=C(N)c1cccc(/C=C2/CCCC/C(=C\c3cccc(C(=N)N)c3)C2=O)c1` [EX. 13 Z,E, Z,E-1,3-bis[(3'-(amino(imino)methyl)phenyl)methylene]-2-oxocycloheptane, trifluoroacetate]: the inhibition constant (Ki) at Factor Xa (HFXa) turned out to be 143 ± 38 nM; on thrombin (IIa), 1000 ± 30 nM.
`N=C(N)c1cccc(/C=C2/CCCC/C(=C/c3cccc(C(=N)N)c3)C2=O)c1` [EX. 13 Z,Z, Z,Z-1,3-bis[(3'-(amino(imino)methyl)phenyl)methylene]-2-oxocycloheptane, trifluoroacetate]: the Ki was 5.63 ± 1.97 nM on Factor Xa (HFXa) and 1360 ± 500 nM on thrombin (IIa).
As for `N=C(N)c1ccc(/C=C2/CCCCCCC/C(=C\c3ccc(C(=N)N)cc3)C2=O)cc1` [EX. 14 Z,E], the results for the Ki at Factor Xa (HFXa) and at thrombin (IIa) were 509 ± 26 nM and 146 ± 27 nM, respectively.
`N=C(N)c1ccc(/C=C2/CCCCCCC/C(=C/c3ccc(C(=N)N)cc3)C2=O)cc1` [EX. 14 Z,Z]: the Ki on Factor Xa (HFXa) stood at 111 ± 2 nM; at thrombin (IIa), 741 ± 161 nM.
Regarding `N=C(N)c1ccc(/C=C2/CCCCC/C(=C\c3ccc(C(=N)N)cc3)C2=O)cc1` [EX. 15 Z,E, Z,E-1,3-bis[(4'-(amino(imino)methyl)phenyl)methylene]-2-oxocyclooctane], the inhibition constant Ki turned out to be 128 ± 25 nM at Factor Xa (HFXa) and 198 ± 18 nM at thrombin (IIa).
Regarding `N=C(N)c1ccc(/C=C2/CCCCC/C(=C/c3ccc(C(=N)N)cc3)C2=O)cc1` [EX. 15 Z,Z, Z,Z-1,3-bis[(4'-(amino(imino)methyl)phenyl)methylene]-2-oxocyclooctane], the Ki at Factor Xa (HFXa) turned out to be 13.7 ± 5.5 nM; at thrombin (IIa), 619 ± 193 nM.
On to `N=C(N)c1ccc(/C=C2/CCCCCC/C(=C\c3ccc(C(=N)N)cc3)C2=O)cc1` [EX. 16 Z,E, Z,E-1,3-bis[(4'-(amino(imino)methyl)phenyl)methylene]-2-oxocyclononane], for which the Ki on Factor Xa (HFXa) was 324 ± 48 nM; on thrombin (IIa) it was 347 ± 35 nM.
The matching figures for `N=C(N)c1ccc(/C=C2/CCCCCC/C(=C/c3ccc(C(=N)N)cc3)C2=O)cc1` [EX. 16 Z,Z, Z,Z-1,3-bis[(4'-(amino(imino)methyl)phenyl)methylene]-2-oxocyclononane]: 6 ± 2.8 nM and 527 ± 52 nM.
